Data published in patent publication US20240217978A1 (CHONG KUN DANG PHARMACEUTICAL CORP., priority 2021, published 2024).

Biological target: human adenosine A2a receptor (Homo sapiens (Human), UniProt P29274)
Assay: A2a receptor binding affinity, [3H]-NECA radioligand binding test
Details: [3H]-NECA 37 nM; membrane from HEK-293 cells transfected with human adenosine A2a receptor
In short: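 IC50 values (μM) come from displacement of [3H]-NECA, used at 37 nM final, on human A2a receptor membranes from transfected HEK-293 cells. Incubation lasted one hour at room temperature in Tris/MgCl2/EDTA buffer, pH 7.4; filter-bound radioactivity was counted by scintillation.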

Sequence of human adenosine A2a receptor (P29274 whole entry): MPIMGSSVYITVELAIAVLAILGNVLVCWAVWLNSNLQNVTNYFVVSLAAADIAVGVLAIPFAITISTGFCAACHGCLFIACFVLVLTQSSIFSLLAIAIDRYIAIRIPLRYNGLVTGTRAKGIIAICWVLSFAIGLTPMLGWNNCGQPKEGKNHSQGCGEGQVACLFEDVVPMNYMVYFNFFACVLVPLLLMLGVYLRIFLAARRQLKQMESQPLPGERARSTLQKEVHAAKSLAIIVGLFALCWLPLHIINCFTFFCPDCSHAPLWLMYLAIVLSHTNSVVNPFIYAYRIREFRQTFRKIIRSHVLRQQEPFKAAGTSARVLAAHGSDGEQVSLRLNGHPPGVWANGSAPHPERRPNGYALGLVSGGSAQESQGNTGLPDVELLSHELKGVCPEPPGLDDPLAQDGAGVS

Compound | IC50 [nM]
Nc1nc(N2CCC[C@H]2C(=O)N2CCC(N3CC(F)(F)C3)CC2)nc2nc(-c3ccco3)nn12 [Example 390, (S)-(1-(7-amino-2-(furan-2-yl)-[1,2,4]triazolo[1,5-a][1,3,5]triazin-5-yl)pyrrolidin-2-yl)(4-(3,3-difluoroazetidin-1-yl)piperidin-1-yl)methanone] | 8
CCC[C@H](Nc1nc(N)n2nc(-c3ccco3)nc2n1)C(=O)N1CCN(c2ccc(F)cc2F)CC1 [Example 163, (S)-2-((7-amino-2-(furan-2-yl)-[1,2,4]triazolo[1,5-a][1,3,5]triazin-5-yl)amino)-1-(4-(2,4-difluorophenyl)piperazin-1-yl)pentan-1-one] | 0.5
CCCCN1CCN(C(=O)[C@H](CC(C)C)Nc2nc(N)n3nc(-c4ccco4)nc3n2)CC1 [Example 175, (S)-2-((7-amino-2-(furan-2-yl)-[1,2,4]triazolo[1,5-a][1,3,5]triazin-5-yl)amino)-1-(4-butylpiperazin-1-yl)-4-methylpentan-1-one] | 12
CC1CN(C(=O)[C@H](C)Nc2nc(N)n3nc(-c4ccco4)nc3n2)CC(C)N1C(=O)N1CCOCC1 (stereo partly drawn) [Example 129, (2S)-2-((7-amino-2-(furan-2-yl)-[1,2,4]triazolo[1,5-a][1,3,5]triazin-5-yl)amino)-1-(3,5-dimethyl-4-(morpholine-4-carbonyl)piperazin-1-yl)propan-1-one] | 10
CC(C)S(=O)(=O)N1CCN(C(=O)[C@@H]2CCCN2c2nc(N)n3nc(-c4ccco4)nc3n2)CC1 [Example 71, (S)-(1-(7-amino-2-(furan-2-yl)-[1,2,4]triazolo[1,5-a][1,3,5]triazin-5-yl)pyrrolidin-2-yl)(4-(isopropylsulfonyl)piperazin-1-yl)methanone] | 10
Nc1nc(N2CCC[C@H]2C(=O)N2CCN(CC(F)(F)C(F)F)CC2)nc2oc(-c3ccco3)nc12 [Example 271, (S)-(1-(7-amino-2-(furan-2-yl)oxazolo[5,4-d]pyrimidin-5-yl)pyrrolidin-2-yl)(4-(2,2,3,3-tetrafluoropropyl)piperazin-1-yl)methanone] | 10
CC(C)(F)CN1CCN(C(=O)[C@H](CO)Nc2nc(N)n3nc(-c4ccco4)nc3n2)CC1 [Example 232, (S)-2-((7-amino-2-(furan-2-yl)-[1,2,4]triazolo[1,5-a][1,3,5]triazin-5-yl)amino)-1-(4-(2-fluoro-2-methylpropyl)piperazin-1-yl)-3-hydroxypropan-1-one] | 40
Nc1nc(N[C@H](C(=O)N2CCN(CC(F)(F)F)CC2)C2CCCCC2)nc2nc(-c3nccs3)nn12 [Example 250, (S)-2-((7-amino-2-(thiazol-2-yl)-[1,2,4]triazolo[1,5-a][1,3,5]triazin-5-yl)amino)-2-cyclohexyl-1-(4-(2,2,2-trifluoroethyl)piperazin-1-yl)ethan-1-one] | 9
Nc1nc(N2CCC[C@H]2C(=O)N2CCN(c3ccccc3C(F)(F)F)CC2)nc2nc(-c3ccco3)nn12 [Example 150, (S)-(1-(7-amino-2-(furan-2-yl)-[1,2,4]triazolo[1,5-a][1,3,5]triazin-5-yl)pyrrolidin-2-yl)(4-(2-(trifluoromethyl)phenyl)piperazin-1-yl)methanone] | 0.1
Nc1nc(N2CCC[C@H]2C(=O)N2CCN(c3ccccc3)CC2)nc2nc(-c3ccco3)nn12 [Example 151, (S)-(1-(7-amino-2-(furan-2-yl)-[1,2,4]triazolo[1,5-a][1,3,5]triazin-5-yl)pyrrolidin-2-yl)(4-phenylpiperazin-1-yl)methanone] | 13
Cc1ccc(-c2nc3nc(N4CCC[C@H]4C(=O)N4CCN(CC(F)(F)F)C[C@H]4C)nc(N)n3n2)o1 [Example 196, ((S)-1-(7-amino-2-(5-methylfuran-2-yl)-[1,2,4]triazolo[1,5-a][1,3,5]triazin-5-yl)pyrrolidin-2-yl)((R)-2-methyl-4-(2,2,2-trifluoroethyl)piperazin-1-yl)methanone] | 8
Nc1nc(N2CCC[C@H]2C(=O)N2CCN(Cc3ccccc3)CC2)nc2nc(-c3nccs3)nn12 [Example 193, (S)-(1-(7-amino-2-(thiazol-2-yl)-[1,2,4]triazolo[1,5-a][1,3,5]triazin-5-yl)pyrrolidin-2-yl)(4-benzylpiperazin-1-yl)methanone] | 10
COCCN1CCN(C(=O)[C@H]2CCCN2c2nc(N)n3nc(-c4ccco4)nc3n2)CC1 [Example 92, (R)-(1-(7-amino-2-(furan-2-yl)-[1,2,4]triazolo[1,5-a][1,3,5]triazin-5-yl)pyrrolidin-2-yl)(4-(2-methoxyethyl)piperazin-1-yl)methanone] | 2290
CC(F)(F)CN1CCN(C(=O)[C@@H]2CCCN2c2nc(N)c3nc(-c4ccco4)sc3n2)CC1 [Example 259, (S)-(1-(7-amino-2-(furan-2-yl)thiazolo[5,4-d]pyrimidin-5-yl)pyrrolidin-2-yl)(4-(2,2-difluoropropyl)piperazin-1-yl)methanone] | 3
CCC(C)[C@H](Nc1nc(N)n2nc(-c3ccco3)nc2n1)C(=O)N1CCN(CC(F)(F)F)CC1 (stereo partly drawn) [Example 214, (2S)-2-((7-amino-2-(furan-2-yl)-[1,2,4]triazolo[1,5-a][1,3,5]triazin-5-yl)amino)-3-methyl-1-(4-(2,2,2-trifluoroethyl)piperazin-1-yl)pentan-1-one] | 5
COCCN1CCN(C(=O)[C@@H](Nc2nc(N)n3nc(-c4ccco4)nc3n2)C2CCCCC2)CC1 [Example 188, (S)-2-((7-amino-2-(furan-2-yl)-[1,2,4]triazolo[1,5-a][1,3,5]triazin-5-yl)amino)-2-cyclohexyl-1-(4-(2-methoxyethyl)piperazin-1-yl)ethan-1-one] | 10

The remaining compounds from weak to strong by IC50, led by results:

IC50 [nM] | Compound
18 | CC(C)(F)CN1CCC(C2CCN(C(=O)[C@@H]3CCCN3c3cc4nc(-c5ccco5)nn4c(N)n3)CC2)CC1 [Example 395, (S)-(1-(5-amino-2-(furan-2-yl)-[1,2,4]triazolo[1,5-c]pyrimidin-7-yl)pyrrolidin-2-yl)(1′-(2-fluoro-2-methylpropyl)-[4,4′-bipiperidin]-1-yl)methanone]
17 | CCC(O)(CC)CN1CCN(C(=O)[C@@H]2CCN2c2nc(N)n3nc(-c4ccco4)nc3n2)CC1 [Example 347, (S)-(1-(7-amino-2-(furan-2-yl)-[1,2,4]triazolo[1,5-a][1,3,5]triazin-5-yl)azetidin-2-yl)(4-(2-ethyl-2-hydroxybutyl)piperazin-1-yl)methanone]
16 | Nc1nc(N2CCC[C@H]2C(=O)N2CCN(C(=O)c3ccc(C(F)(F)F)cn3)CC2)nc2nc(-c3ccco3)nn12 [Example 83]
16 | CCCCN1CCN(C(=O)[C@@H](Nc2nc(N)n3nc(-c4ccco4)nc3n2)C2CC2)CC1 [Example 176, (S)-2-((7-amino-2-(furan-2-yl)-[1,2,4]triazolo[1,5-a][1,3,5]triazin-5-yl)amino)-1-(4-butylpiperazin-1-yl)-2-cyclopropylethan-1-one]
8 | C[C@@H]1CN(C(=O)Nc2ccccc2)CCN1C(=O)[C@@H]1CCCN1c1nc(N)n2nc(-c3ccco3)nc2n1 [Example 182, (R)-4-((7-amino-2-(furan-2-yl)-[1,2,4]triazolo[1,5-a][1,3,5]triazine-5-yl)-L-prolyl)-3-methyl-N-phenylpiperazin-1-carboxamide]
8 | Nc1nc(N2CCC[C@H]2C(=O)N2CCN(CC(F)(F)F)CC23CC3)nc2nc(-c3ccco3)nn12 [Example 342, (S)-(1-(7-amino-2-(furan-2-yl)-[1,2,4]triazolo[1,5-a][1,3,5]triazin-5-yl)pyrrolidin-2-yl)(7-(2,2,2-trifluoroethyl)-4,7-diazaspiro[2.5]octan-4-yl)methanone]
7 | Nc1nc(N2CCC[C@H]2C(=O)N2CCCN(c3ccc(F)cc3F)CC2)nc2nc(-c3ccco3)nn12 [Example 276, (S)-(1-(7-amino-2-(furan-2-yl)-[1,2,4]triazolo[1,5-a][1,3,5]triazin-5-yl)pyrrolidin-2-yl)(4-(2,4-difluorophenyl)-1,4-diazepan-1-yl)methanone]
6 | Nc1nc(N2CC[C@H]2C(=O)N2CCN(CC(F)F)CC2)nc2nc(-c3ccco3)nn12 [Example 252, (S)-(1-(7-amino-2-(furan-2-yl)-[1,2,4]triazolo[1,5-a][1,3,5]triazin-5-yl)azetidin-2-yl)(4-(2,2-difluoroethyl)piperazin-1-yl)methanone]
6 | CC(F)(F)CN1CCN(C(=O)[C@@H]2CCCN2c2nc(N)n3nc(-c4ccco4)nc3n2)CC1 [Example 224, (S)-(1-(7-amino-2-(furan-2-yl)-[1,2,4]triazolo[1,5-a][1,3,5]triazin-5-yl)pyrrolidin-2-yl)(4-(2,2-difluoropropyl)piperazin-1-yl)methanone]
3 | CC[C@H](Nc1nc(N)n2nc(-c3ccco3)nc2n1)C(=O)N1CCN(C(=O)CC(C)(C)O)CC1 [Example 368, (S)-1-(4-(2-((7-amino-2-(furan-2-yl)-[1,2,4]triazolo[1,5-a][1,3,5]triazin-5-yl)amino)butanoyl)piperazin-1-yl)-3-hydroxy-3-methylbutan-1-one]
3 | CCCCCCN1CCN(C(=O)[C@@H]2CCCN2c2nc(N)n3nc(-c4ccco4)nc3n2)CC1 [Example 301, (S)-(1-(7-amino-2-(furan-2-yl)-[1,2,4]triazolo[1,5-a][1,3,5]triazin-5-yl)pyrrolidin-2-yl)(4-hexylpiperazin-1-yl)methanone]
1 | Nc1nc(N2CC[C@H]2C(=O)N2CCN(CC(F)(F)C(F)(F)F)CC2)nc2nc(-c3ccco3)nn12 [Example 256, (S)-(1-(7-amino-2-(furan-2-yl)-[1,2,4]triazolo[1,5-a][1,3,5]triazin-5-yl)azetidin-2-yl)(4-(2,2,3,3,3-pentafluoropropyl)piperazin-1-yl)methanone]
0.458 | Nc1nc(N[C@@H](Cc2ccccc2)C(=O)N2CCN(CC(F)(F)F)CC2)nc2nc(-c3ccco3)nn12 [Example 4]
